ChEMBL document CHEMBL3853354, “Structure-activity relationships of proline modifications around the tetracyclic-indole class of NS5A inhibitors” (Bioorg Med Chem Lett, 2016)

Experiments:
[1] = test system: Hepatitis C virus subtype 1a; experiment: Inhibition of NS5A in HCV genotype 1a assessed as reduction in replicon RNA level after 3 days by cell based RT-PCR method
[2] = test system: Nonstructural protein 5A (Hepatitis C virus), Q5L478 [UNDEFINED MUTATION]; experiment: Inhibition of NS5A L31V mutant in HCV genotype 1a assessed as reduction in replicon RNA level after 3 days by cell based RT-PCR method; conditions: Hepatitis C virus subtype 1a
[3] = test system: T1, Nonstructural protein 5A (Hepatitis C virus), Q5L478 [Y93H]; experiment: Inhibition of NS5A Y93H mutant in HCV genotype 1a assessed as reduction in replicon RNA level after 3 days by cell based RT-PCR method; conditions: Hepatitis C virus subtype 1a
T1 sequence (whole entry): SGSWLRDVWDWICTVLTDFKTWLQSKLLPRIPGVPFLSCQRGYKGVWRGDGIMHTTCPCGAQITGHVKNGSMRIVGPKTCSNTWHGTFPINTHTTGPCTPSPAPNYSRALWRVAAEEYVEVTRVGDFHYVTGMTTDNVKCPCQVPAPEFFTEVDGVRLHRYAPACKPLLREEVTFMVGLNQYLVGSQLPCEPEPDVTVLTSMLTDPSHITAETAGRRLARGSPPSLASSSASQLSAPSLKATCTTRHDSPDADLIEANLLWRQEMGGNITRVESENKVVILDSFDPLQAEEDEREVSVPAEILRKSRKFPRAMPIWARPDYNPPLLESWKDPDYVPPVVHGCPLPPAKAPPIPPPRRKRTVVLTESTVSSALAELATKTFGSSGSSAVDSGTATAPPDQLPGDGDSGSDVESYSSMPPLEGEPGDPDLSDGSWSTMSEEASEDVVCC

[4] = test system: Hepatitis C virus subtype 2b; experiment: Inhibition of NS5A in HCV genotype 2b assessed as reduction in replicon RNA level after 3 days by cell based RT-PCR method
[5] = test system: Hepatitis C virus subtype 3a; experiment: Inhibition of NS5A in HCV genotype 3a assessed as reduction in replicon RNA level after 3 days by cell based RT-PCR method

SMILES: COC(=O)N[C@H](C(=O)N1CCC[C@H]1c1ncc(-c2cc(F)c3c(c2)OC(c2cccc(OC)c2)n2c-3cc3cc(-c4cnc([C@@H]5C[C@H]6C[C@H]6N5C(=O)[C@@H](NC(=O)OC)C(C)C)[nH]4)ccc32)[nH]1)C(C)C (stereo partly specified)
- EC90 [1]: 0.007 nM
- EC90 [2]: 0.084 nM
- EC90 [3]: 1.64 nM
- EC90 [4]: 19.4 nM
- EC90 [5]: 0.15 nM

SMILES: COC(=O)N[C@H](C(=O)N1C(C)CC[C@H]1c1ncc(-c2ccc3c(c2)OC(c2ccccc2)n2c-3cc3cc(-c4cnc([C@@H]5CCC(C)N5C(=O)[C@@H](NC(=O)OC)C(C)C)[nH]4)ccc32)[nH]1)C(C)C (single isomer, unassigned; diastereomer B)
- EC90 [2]: 5.74 nM
- EC90 [3]: 158 nM
- EC90 [4]: 129 nM
- EC90 [5]: 51.5 nM

SMILES: COC(=O)N[C@H](C(=O)N1CC[C@H](OC)[C@H]1c1ncc(-c2cc(F)c3c(c2)OC(c2cccc(OC)c2)n2c-3cc3cc(-c4cnc([C@@H]5[C@@H](OC)CCN5C(=O)[C@@H](NC(=O)OC)C(C)C)[nH]4)ccc32)[nH]1)C(C)C (stereo partly specified)
- EC90 [1]: 2.67 nM
- EC90 [2]: 24.5 nM
- EC90 [3]: 3.86 nM
- EC90 [4]: 322 nM
- EC90 [5]: 30 nM

SMILES: COC(=O)N[C@H](C(=O)N1CCC[C@H]1c1ncc(-c2cc(F)c3c(c2)OC(c2cccc(OC)c2)n2c-3cc3cc(-c4cnc([C@@H]5C[C@@H](F)CN5C(=O)[C@@H](NC(=O)OC)C(C)C)[nH]4)ccc32)[nH]1)C(C)C (stereo partly specified)
- EC90 [1]: 0.01 nM
- EC90 [2]: 0.29 nM
- EC90 [3]: 1.81 nM
- EC90 [4]: 33.6 nM

SMILES: COC(=O)N[C@H](C(=O)N1CC2(C[C@H]1c1ncc(-c3cc(F)c4c(c3)OC(c3cccc(OC)c3)n3c-4cc4cc(-c5cnc([C@@H]6CC7(CN6C(=O)[C@@H](NC(=O)OC)C(C)C)OCCCO7)[nH]5)ccc43)[nH]1)OCCCO2)C(C)C (mixture of isomers)
- EC90 [1]: 0.018 nM
- EC90 [2]: 0.2 nM
- EC90 [3]: 0.44 nM
- EC90 [4]: 114 nM
- EC90 [5]: 15 nM

SMILES: COC(=O)N[C@H](C(=O)N1CCC[C@H]1c1ncc(-c2ccc3c(c2)cc2n3C(c3cccc(OC)c3)Oc3cc(-c4cnc([C@@H]5C[C@H]6C[C@H]6N5C(=O)[C@@H](NC(=O)OC)C(C)C)[nH]4)cc(F)c3-2)[nH]1)C(C)C (stereo partly specified)
- EC90 [1]: 0.026 nM
- EC90 [2]: 0.36 nM
- EC90 [3]: 10.9 nM
- EC90 [4]: 49.3 nM

SMILES: COC(=O)N[C@H](C(=O)N1C[C@@H](OC)C[C@H]1c1ncc(-c2cc(F)c3c(c2)OC(c2cccc(OC)c2)n2c-3cc3cc(-c4cnc([C@@H]5C[C@H](OC)CN5C(=O)[C@@H](NC(=O)OC)C(C)C)[nH]4)ccc32)[nH]1)C(C)C (stereo partly specified)
- EC90 [1]: 0.017 nM
- EC90 [2]: 0.04 nM
- EC90 [3]: 8.87 nM
- EC90 [4]: 5.74 nM
- EC90 [5]: 0.71 nM

SMILES: COC(=O)N[C@H](C(=O)N1C(C)CC[C@H]1c1ncc(-c2ccc3c(c2)OC(c2ccccc2)n2c-3cc3cc(-c4cnc([C@@H]5CCC(C)N5C(=O)[C@@H](NC(=O)OC)C(C)C)[nH]4)ccc32)[nH]1)C(C)C (single isomer, unassigned; diastereomer A)
- EC90 [2]: 1.72 nM
- EC90 [3]: 64 nM
- EC90 [4]: 75 nM
- EC90 [5]: 6.14 nM

SMILES: COC(=O)N[C@H](C(=O)N1CCC[C@H]1c1ncc(-c2cc(F)c3c(c2)OC(c2cccc(OC)c2)n2c-3cc3cc(-c4cnc([C@@H]5[C@H]6CC[C@H](C6)N5C(=O)[C@@H](NC(=O)OC)C(C)C)[nH]4)ccc32)[nH]1)C(C)C (stereo partly specified)
- EC90 [1]: 0.002 nM
- EC90 [2]: 0.9 nM
- EC90 [3]: 26.1 nM
- EC90 [4]: 51.8 nM
- EC90 [5]: 0.92 nM

SMILES: COC(=O)N[C@H](C(=O)N1C[C@H](F)C[C@H]1c1ncc(-c2cc(F)c3c(c2)OC(c2cccc(OC)c2)n2c-3cc3cc(-c4cnc([C@@H]5C[C@H]6C[C@H]6N5C(=O)[C@@H](NC(=O)OC)C(C)C)[nH]4)ccc32)[nH]1)C(C)C (stereo partly specified)
- EC90 [1]: 0.032 nM
- EC90 [2]: 0.92 nM
- EC90 [3]: 5.15 nM
- EC90 [4]: 52.2 nM

SMILES: COC(=O)N[C@H](C(=O)N1C[C@H](F)C[C@H]1c1ncc(-c2cc(F)c3c(c2)OC(c2cccc(OC)c2)n2c-3cc3cc(-c4cnc([C@@H]5C[Si](C)(C)CN5C(=O)[C@@H](NC(=O)OC)C(C)C)[nH]4)ccc32)[nH]1)C(C)C (stereo partly specified)
- EC90 [1]: 0.3 nM
- EC90 [2]: 13.6 nM
- EC90 [3]: 91.4 nM
- EC90 [4]: 391 nM

SMILES: COC(=O)N[C@H](C(=O)N1C[C@H](OC)C[C@H]1c1ncc(-c2cc(F)c3c(c2)OC(c2cccc(OC)c2)n2c-3cc3cc(-c4cnc([C@@H]5C[C@@H](OC)CN5C(=O)[C@@H](NC(=O)OC)C(C)C)[nH]4)ccc32)[nH]1)C(C)C (stereo partly specified)
- EC90 [1]: 0.015 nM
- EC90 [2]: 0.19 nM
- EC90 [3]: 0.79 nM
- EC90 [4]: 90.7 nM
- EC90 [5]: 5.52 nM

SMILES: COC(=O)N[C@H](C(=O)N1[C@@H]2CC(F)(F)[C@@H]2C[C@H]1c1ncc(-c2cc(F)c3c(c2)OC(c2cccc(OC)c2)n2c-3cc3cc(-c4cnc([C@@H]5C[C@@H]6[C@@H](CC6(F)F)N5C(=O)[C@@H](NC(=O)OC)C(C)C)[nH]4)ccc32)[nH]1)C(C)C (stereo partly specified)
- EC90 [1]: 0.017 nM
- EC90 [2]: 0.078 nM
- EC90 [3]: 52.6 nM
- EC90 [4]: 58 nM
- EC90 [5]: 0.29 nM

SMILES: COC(=O)N[C@H](C(=O)N1C[C@H](OC(F)F)C[C@H]1c1ncc(-c2cc(F)c3c(c2)OC(c2cccc(OC)c2)n2c-3cc3cc(-c4cnc([C@@H]5C[C@@H](OC(F)F)CN5C(=O)[C@@H](NC(=O)OC)C(C)C)[nH]4)ccc32)[nH]1)C(C)C (stereo partly specified)
- EC90 [1]: 0.021 nM
- EC90 [3]: 5.27 nM
- EC90 [4]: 55.6 nM
- EC90 [5]: 12.9 nM

SMILES: COC(=O)N[C@H](C(=O)N1[C@@H]2C[C@@H]2C[C@H]1c1ncc(-c2cc(F)c3c(c2)OC(c2cccc(OC)c2)n2c-3cc3cc(-c4cnc([C@@H]5C[C@H]6C[C@H]6N5C(=O)[C@@H](NC(=O)OC)C(C)C)[nH]4)ccc32)[nH]1)C(C)C (stereo partly specified)
- EC90 [1]: 0.005 nM
- EC90 [2]: 1.72 nM
- EC90 [3]: 0.51 nM
- EC90 [4]: 22.5 nM
- EC90 [5]: 0.17 nM

SMILES: COC(=O)N[C@H](C(=O)N1[C@@H]2CCCC[C@@H]2C[C@H]1c1ncc(-c2cc(F)c3c(c2)OC(c2cccc(OC)c2)n2c-3cc3cc(-c4cnc([C@@H]5C[C@H]6CCCC[C@H]6N5C(=O)[C@@H](NC(=O)OC)C(C)C)[nH]4)ccc32)[nH]1)C(C)C (stereo partly specified)
- EC90 [1]: 0.18 nM
- EC90 [2]: 0.51 nM
- EC90 [3]: 37.6 nM
- EC90 [4]: 21 nM

SMILES: COC(=O)N[C@H](C(=O)N1C[C@H](F)C[C@H]1c1ncc(-c2cc(F)c3c(c2)OC(c2cccc(OC)c2)n2c-3cc3cc(-c4cnc([C@@H]5C[C@@H](F)CN5C(=O)[C@@H](NC(=O)OC)C(C)C)[nH]4)ccc32)[nH]1)C(C)C (stereo partly specified)
- EC90 [1]: 0.006 nM
- EC90 [2]: 1.59 nM
- EC90 [3]: 0.065 nM
- EC90 [4]: 39 nM

SMILES: COC(=O)N[C@H](C(=O)N1CCC[C@H]1c1ncc(-c2cc(F)c3c(c2)OC(c2ccccc2)n2c-3cc3cc(-c4cnc([C@H]5[C@@H]6[C@H](CN5C(=O)[C@@H](NC(=O)OC)C(C)C)C6(C)C)[nH]4)ccc32)[nH]1)C(C)C (mixture of isomers)
- EC90 [1]: 0.02 nM
- EC90 [2]: 21 nM
- EC90 [3]: > 100 nM
- EC90 [4]: 337 nM
- EC90 [5]: > 10 nM

SMILES: COC(=O)N[C@H](C(=O)N1CC2(CC2)C[C@H]1c1ncc(-c2cc(F)c3c(c2)OC(c2cccc(OC)c2)n2c-3cc3cc(-c4cnc([C@@H]5CC6(CC6)CN5C(=O)[C@@H](NC(=O)OC)C(C)C)[nH]4)ccc32)[nH]1)C(C)C (stereo partly specified)
- EC90 [1]: 0.011 nM
- EC90 [2]: 0.05 nM
- EC90 [3]: 23.7 nM
- EC90 [4]: 38.8 nM
- EC90 [5]: 0.16 nM

SMILES: COC(=O)N[C@H](C(=O)N1CCC[C@H]1c1ncc(-c2ccc3c(c2)cc2n3C(c3cccc(OC)c3)Oc3cc(-c4cnc([C@@H]5C[C@@H](F)CN5C(=O)[C@@H](NC(=O)OC)C(C)C)[nH]4)cc(F)c3-2)[nH]1)C(C)C (stereo partly specified)
- EC90 [1]: < 0.002 nM
- EC90 [2]: 0.34 nM
- EC90 [3]: 0.55 nM
- EC90 [4]: 18.8 nM
- EC90 [5]: 0.13 nM
